The test deals with diet-induced obese C57BL/6NTac mice. Description: Weight loss study in diet-induced obese mice. The class given is in vivo. Conditions: oral 1.0 mg/kg in 10% gelucire in deionised water, once a day for 7 days; C57BL/6NTac mice on 60% fat diet; after 7 days. As for the experimental part:
A weight loss study was conducted in obese mice. The mice in this study were not genetically obese, but prior to and during the study, obesity was induced by a high-fat diet. Twelve week-old C57BL/6NTac mice, maintained on a 60% fat diet prior to and during the study, were separated into two groups, with eight animals per group. Average body weight of the mice was approximately 47 g at the start of the study.
One group was orally administered 1.0 mg/kg of compound H in 10% gelucire in deionised water, and one group was administered 10% gelucire in deionised water (vehicle). Compound H is as follows:
Mice received administrations once a day for 7 days. After 7 days, the average weight loss of mice administered compound H was 13.2%.

Compound `CCN(CC)C/C=C\c1ccccc1S(=O)(=O)Nc1ccc2c(c1C(=O)O)CCCC2` [compound H] showed an average weight loss of 13.2%.

Source of the values: patent US20120010290A1, “Methods of Treating an Overweight or Obese Subject” (priority 2008, published 2012).
